Data on 18 compounds can be found in US5428036A (H. Lundbeck A/S, priority 1990, dated 1995).

Data set [1] concerns the target T1, serotonin S2 (5-HT2) receptors (Rattus norvegicus, UniProt P14842).
T1 construct: from tissue; host or cells: cerebral cortex membranes of male Wistar (Mol:Wist) rats
Nature of the data set: Inhibition of 3H-ketanserin binding to serotonin S2 (5-HT2) receptors in rat cortex in vitro. The settings on record: for IC50: 0.5 nM 3H-ketanserin, rat cortex membranes, 37° C., 30 min. The protocol: (§1) The prodrugs of the invention were tested in vitro for 5-HT2 receptor affinity (^3 H-ketanserin binding) and for 5-HT2 antagonistic effect in vivo (antagonism of quipazine induced head twiches).
Inhibition of ^3 H-ketanserin Binding to Serotonin S2 (5-HT2)Receptors in Rat Cortex in vitro
By this method the inhibition by drugs of the binding of ^3 H-Ketanserin (0,5 nM) to serotonin S2 (5-HT2) receptors in membranes from rat corex is determined in vitro. Method in Hyttel, Pharmacol. & Toxicol, 61, 126-129 1987.
Male Wistar (Mol:Wist) rats are sacrificed and cortical tissue is dissected and weighed. The tissue is homogenized (Ultra Turrax, 10 sec.) in 10 ml of ice-cold 50 mM tris buffer pH 7.7 (at 25° C.). The centrifuge glass ware used in this step has been rinsed by sonication for 10 min. in ethanol. The homogenate is centrifuged twice at 20,000 g for 10 min. at 4° C. with rehomogenization of the pellet in 10 ml ice-cold buffer. The final pellet is homogenized in 500 vol (w/v) ice-cold buffer. Incubation tubes kept on ice in triplicate receive 100 μl of drug solution in water (or water for total binding) and […] of tissue suspension (final tissue content corresponds to 4 mg original tissue). The binding experiment is initiated by addition of 100 μl of ^3 H-Ketanserin (final concentration 0.5 nM) and by placing the tubes in a 37° C. water bath. After incubation for 30 min. the samples are filtered under vacuum (0-50 mBar) through Whatman GF/F filters (25 mm). The tubes are rinsed with 5 ml ice-cold buffer which are then poured on the filters. Thereafter, the filters are washed with 2×5 ml of buffer. The filters are placed in counting vials and 4 ml of appropriate scintillation fluid (e.g. Picofluor™ 15) are added. After shaking for 1 h and storage 2 hrs in the dark the content of radioactivity is determined by liquid scintillation counting. Specific binding is obtained by subtracting the nonspecific binding in the presence of 1 μM mianserin. For determination of the inhibition of binding five concentrations of drugs covering 3 decades are used.
The IC50 value is determined as the concentration at which the binding is 50% of the total binding in control samples minus the nonspecific binding in the presence of 1 μM mianserin.
^3 H-Ketanserin=[ethylene-^3 H]-ketanserin hydrochloride from New England Nuclear, specific activity 60-80 Ci/mmol.

In a further data set the target is T2, 5-HT2 (Rattus norvegicus, UniProt P14842).
T2 construct: Four rats, male Wistar (Mol:Wist) SPF rats, are used at each dose level; from tissue; host or cells: living male Wistar (Mol:Wist) SPF rats; receptor endogenous to the animal
The experiment in a line: Quipazine inhibition (antagonism of quipazine induced head twitches in rats). Type of data set: in vivo. Particulars: for ED50: po, p.o. 24 hrs before quipazine (6.8 mg/kg, s.c.), head twitches, rat. On the procedure:
as §1
Quipazine is a 5-HT2 agonist, which induces head twitches in rats. The test is a test for 5-HT2 -antagonistic effect measuring the ability to inhibit head twitches. The method and test results for some reference substances are published by Arnt et al. (Drug Dev. Res., 16, 59-70, 1989).
Test substance is given p.o. 24 hrs before quipazine administration (6.8 mg/kg, s.c., dimaleate). Four rats, male Wistar (Mol:Wist) SPF rats, are used at each dose level. A control group is included each test day. After quipazine administration the rats are individually placed in the observation cages and head twitches are counted in an observation period of 10 min. 30-40 min. after injection of quipazine.
Total number of head twitches in each group are calculated and the result for each dose is expressed as percent of the response in the control group. ED50 values are calculated by log-probit analysis. The test must be repeated if the average number of head twitches is lower than 9 in the control group.

Data set [2] in a line: Sertindole concentration in dog serum after i.m. depot dosing in Viscoleo (HPLC). Type of data set: in vivo, Beagle dogs. The settings on record: i.m. depot formulation in dogs; FIG. 1. On the procedure:
The depot effects of the compounds of the invention were determined as described in the following example:
Seven Beagle dogs were used. One male and one female dog were used for each preparation exept for 1a where only one female dog was used. The compounds were dissolved in Viscoleo®. One ml Viscoleo® equivalent 1 kg dog. The dogs were dosed i.m. approx. 5 ml in each thigh.
Blood samples were drawn at 1,2, 4, 8, and 24 hours after dosing, and 2, 4, 7, 10, and 14 days after dosing.
The serum samples were analyzed by HPLC using a system consisting of a Spherisorb S5W column (25 cm×4.6 mm) and a Hewlett Packard HP 1090 chromatograph with a HP 1050 UV-absorbance detector with a measuring wavelength of 254 nm. Elution was performed with n-heptane/2-propanol/conc. ammonia/water in the ratio 100/18.4/0.5/0.2, v/v as eluent at ambient temperature with a pressure of approximately 70 bar and a flow rate of 1 ml/min.

T1 sequence (P14842 whole entry): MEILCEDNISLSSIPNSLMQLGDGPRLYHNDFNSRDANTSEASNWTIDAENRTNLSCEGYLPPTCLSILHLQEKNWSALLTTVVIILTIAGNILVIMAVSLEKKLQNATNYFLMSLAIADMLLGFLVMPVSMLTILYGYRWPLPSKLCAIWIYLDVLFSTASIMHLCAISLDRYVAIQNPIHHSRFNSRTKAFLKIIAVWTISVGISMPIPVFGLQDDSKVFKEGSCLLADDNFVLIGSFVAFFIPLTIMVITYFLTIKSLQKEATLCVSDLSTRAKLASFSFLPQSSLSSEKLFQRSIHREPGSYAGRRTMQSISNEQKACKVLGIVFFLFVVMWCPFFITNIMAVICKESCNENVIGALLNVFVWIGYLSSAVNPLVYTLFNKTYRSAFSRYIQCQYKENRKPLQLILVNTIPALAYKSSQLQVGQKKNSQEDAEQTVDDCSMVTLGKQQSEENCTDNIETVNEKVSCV
T2 sequence (P14842 whole entry): as above

With `CCCCCC(=O)N1CCN(CCN2CCC(c3cn(-c4ccc(F)cc4)c4ccc(Cl)cc34)CC2)C1=O` [Compound 8e, 5-chloro-1-(4-fluorophenyl)-3-[1-[2-(3-hexanoyl-2-imidazolidinon-1-yl)ethyl]-4-piperidyl]-1H-indole], the IC50 in data set [1] worked out at 38 nM. This compound also registered an ED50 on 5-HT2 of 0.039 µmol/kg.
In turn, `CCCCCCCC(=O)N1CCN(CCN2CCC(c3cn(-c4ccc(F)cc4)c4ccc(Cl)cc34)CC2)C1=O` [Compound 8f, 5-chloro-1-(4-fluorophenyl)-3-[1-[2-(3-octanoyl-2-imidazolidinon-1-yl)ethyl]-4-piperidyl]-1H-indole] displayed a concentration for half-maximal inhibition (IC50) in data set [1] of 140 nM. This compound came in with an ED50 on 5-HT2 of 0.092 µmol/kg.
Take `CC(=O)Oc1ccccc1C(=O)N1CCN(CCN2CCC(c3cn(-c4ccc(F)cc4)c4ccc(Cl)cc34)CC2)C1=O` [Compound 8c]: the IC50 in data set [1] was determined as 24 nM. The compound further came in with an ED50 at 5-HT2 of 0.057 µmol/kg.
`O=C1N(CCN2CCC(c3cn(-c4ccc(F)cc4)c4ccc(Cl)cc34)CC2)CCN1CN1CCOCC1` [Compound 6a, 5-Chloro-1-(4-fluorophenyl)-3-[1-[2-[3-(1-morpholinomethyl)-2-imidazolidinon-1-yl]ethyl]-4-piperidyl]-1H-indole] returned an IC50 in data set [1] of 0.97 nM. Besides, the ED50 at 5-HT2 was 0.079 µmol/kg.
In data set [1], `CCCCCCCC/C=C\CCCCCCCC(=O)N1CCN(CCN2CCC(c3cn(-c4ccc(F)cc4)c4ccc(Cl)cc34)CC2)C1=O` [Compound 2a] returned an IC50 of 260 nM. It took a dose of 0.55 µmol/kg to reach the 50% effect level on 5-HT2 (ED50).
The matching figures for `CCCC(=O)N1CCN(CCN2CCC(c3cn(-c4ccc(F)cc4)c4ccc(Cl)cc34)CC2)C1=O` [Compound 8d, 3-[1-[2-(3-butanoyl-2-imidazolidinon-1-yl)ethyl]-4-piperidyl]-5-chloro-1(4-fluorophenyl)-1H-indole]: 5.6 nM and 0.014 µmol/kg.
Take `CC(=O)N1CCN(CCN2CCC(c3cn(-c4ccc(F)cc4)c4ccc(Cl)cc34)CC2)C1=O` [Compound 1a]: the 50% inhibitory concentration (IC50) in data set [1] was 1.2 nM. At 5-HT2, this compound had an ED50 of 0.029 µmol/kg. Further, in data set [2], the “decomposition to sertindole after injection of a depot formulation” value is “decompose to sertindole after injection of a depot formulation”.
Consider `CCCCCCCCCC(=O)N1CCN(CCN2CCC(c3cn(-c4ccc(F)cc4)c4ccc(Cl)cc34)CC2)C1=O` [Compound 1b, 5-chloro-3-[1-[2-(3-decanoyl-2-imidazolidinon-1-yl)ethyl]-4-piperidyl]-1-(4-fluorophenyl)-1H-indole], for which the 50% inhibitory concentration (IC50) in data set [1] turned out to be 57 nM. The compound also registered an ED50 on 5-HT2 of 0.09 µmol/kg.
The matching figures for `CCOCN1CCN(CCN2CCC(c3cn(-c4ccc(F)cc4)c4ccc(Cl)cc34)CC2)C1=O` [Compound 7a, 5-Chloro-3-[1-[2-(3-ethoxymethyl-2-imidazolidinon-1-yl)ethyl]-4-piperidyl]-1-(4-fluorophenyl)-1H-indole]: 1.2 nM and 0.081 µmol/kg.
As to `O=C(c1ccccc1)N1CCN(CCN2CCC(c3cn(-c4ccc(F)cc4)c4ccc(Cl)cc34)CC2)C1=O` [Compound 1f, 3-[1-[2-(3-benzoyl-2-imidazolidinon-1-yl)ethyl]-4-piperidyl]-5-chloro-1-(4-fluorophenyl)-1H-indole], the IC50 in data set [1] is 9.3 nM. On 5-HT2, the ED50 amounted to 0.05 µmol/kg.
Taken in the same sequence, the figures for `CCCCCCCCCCCCCCCC(=O)N1CCN(CCN2CCC(c3cn(-c4ccc(F)cc4)c4ccc(Cl)cc34)CC2)C1=O` [Compound 1e] were 47 nM and 0.77 µmol/kg.
Consider `CN(C)CN1CCN(CCN2CCC(c3cn(-c4ccc(F)cc4)c4ccc(Cl)cc34)CC2)C1=O` [Compound 6b, 5-chloro-3-[1-[2-(3-dimethylaminomethyl-2-imidazolidinon-1-yl)ethyl]-4-piperidyl]-1-(4-fluorophenyl)-1H-indole], for which, in data set [1], the half-maximal inhibitory concentration (IC50) turned out to be 0.6 nM.
Regarding `CCCCCCCCCCOCN1CCN(CCN2CCC(c3cn(-c4ccc(F)cc4)c4ccc(Cl)cc34)CC2)C1=O` [Compound 7d], the IC50 in data set [1] is 49 nM. The same compound gave an ED50 at 5-HT2 of 0.15 µmol/kg.
Turning to `CCCCCCCCCCOC(=O)N1CCN(CCN2CCC(c3cn(-c4ccc(F)cc4)c4ccc(Cl)cc34)CC2)C1=O` [Compound 4d, 5-chloro-3-[1-[2-[3-(1-decyl)oxycarbonyl-2-imidazolidinon-1-yl]ethyl]-4-piperidyl]-1-(4-fluorophenyl)-1H-indole], the IC50 in data set [1] was found to be 13 nM. This compound returned an ED50 at 5-HT2 of 1.1 µmol/kg.
The matching figures for `CN(C)C(=O)N1CCN(CCN2CCC(c3cn(-c4ccc(F)cc4)c4ccc(Cl)cc34)CC2)C1=O` [Compound 4a, 5-Chloro-3-[1-[2-(3-dimethylcarbamyl-2-imidazolidinon-1-yl)ethyl]-4-piperidyl]-1-(4-fluorophenyl)-^1 H-indole]: 0.9 nM and 0.24 µmol/kg.
As to `O=C1NCCN1CCN1CCC(c2cn(-c3ccc(F)cc3)c3ccc(Cl)cc23)CC1` [sertindole, 5-chloro-1-(4-fluorophenyl)-3-[1-[2-(2-imidazolidinon-1-yl)ethyl]-4-piperidyl]-1H-indole, reference compound], the “Serotonin S2 (5-HT2) antagonism in vitro” value in data set [1] (in vitro, statement in words) was “very potent”. The “Serotonin S2 (5-HT2) antagonism in vivo” value on 5-HT2 (in vivo, statement in words) is recorded as “very potent”.
In data set [1], `CC(C)c1ccc(C(=O)N2CCN(CCN3CCC(c4cn(-c5ccc(F)cc5)c5ccc(Cl)cc45)CC3)C2=O)cc1` [Compound 8a, 5-Chloro-1-(4-fluorophenyl)-3-[1-[2-[3-(4-isopropylbenzoyl)-2-imidazolidinon-1-yl]ethyl]-4-piperidyl]-1H-indole] showed an IC50 of 20 nM. Moreover, the ED50 on 5-HT2 came out at 0.12 µmol/kg.
Taken in the same sequence, the figures for `O=C1N(CO)CCN1CCN1CCC(c2cn(-c3ccc(F)cc3)c3ccc(Cl)cc23)CC1` [Compound 5a, 5-Chloro-1-(4-fluorophenyl)-3-[1-[2-(3-hydroxymethyl-2-imidazolidinon-1-yl)ethyl]-4-piperidyl]-1H-indole] were 0.47 nM and 0.037 µmol/kg.

Usually IC50 stands for the concentration that inhibits the measured activity by half. As a reminder, the ED50 is the dose that gives a 50% effect, or the effect in half of the subjects. High values mean weaker potency, low ones greater potency.
